# Like-named read-outs stand apart in the source and are kept apart here.
# What was measured:
# [1] = test system: quails of fat arteriosclerosis model; assay: Anti-atherosclerosis effect, aortic atherosclerosis degree of quails (pathological examination); assay type: in vivo; parameters: Total atherosclerosis score: scale not given here
# Excerpt: (§1) Testing composition preparation: ferulic acid and oxymatrine were mixed in a mole ratio 1:1 to prepare a solution.
# (§2) Methods: According to the method described in reference (Liu et al., 2005. Chinese journal of arteriosclerosis, 13(3): 305-308).
# (§3) Test method: 140 male quails were selected and randomly separated into 7 groups: normal control group (healthy quails), modeling control group (fat arteriosclerosis model which is set up by the methods described in reference), positive control group (fat arteriosclerosis model is treated by luofatading 10 mg/kg), ferulic acid control group (tested with ferulic acid 40 mg/kg), large/medium/small dosage testing groups ([…], of testing compositions). Except the normal control group, all the other 6 groups were fat arteriosclerosis models.
# (§4) The quails were daily intragastric administrated with testing compositions or controls once per day for consecutive four weeks. The fourth weekend after administration, the content of serum lipid from 10 quails of each group was detected. In the end, pathological examination was conducted on the surviving quails.
# hepatic stellate cells = assay: Proliferation of hepatic stellate cells (MTT absorbance); assay type: cell-based, rats; conditions: 50 μmol/l, 48 hours, 570 nm, mean ± SD
# Procedure: (§5) Materials and reagents: ELISA kit for rats type I collagen, trypsin, fetal bovine serum, etc.
# (§6) Methods: Revived hepatic stellate cell (HSC) seeds were placed in a 100 ml plastic incubation flask and incubated in a CO2 incubator (inside 5% CO2, 95% humidity). The medium was discarded when the cells grew into a single layer. Digestion solution (5% trypsin) was added. The digestion solution was removed and centrifuged at 2200 rpm for 7 minutes. The supernatant was discarded, washed and centrifuged with DMEM incubation solution. The cells were suspended in a DMEM solution containing 20% fetal bovine serum, and the cell numbers were counted. The cell suspension was diluted with a DMEM solution and seeded in 96 well culture plate, each well having 100 μl diluted suspension. After 48 hours, the solution was removed and the cells were washed with a DMEM incubation solution containing 10% bovine serum to synchronize the cells at stable phrase. The cells were treated with testing compositions diluted in physiological saline (50 μmol/l). Each treatment tested 6 wells and repeated for 3 times. After 48 hours, incubation was terminated. […] The HSC absorbance at wavelength 570 nm was measured by microplate reader. […] The supernatant was obtained and the type I collagen content was measured according to the instructions in the type I collagen kit.
# patients with rash = assay: Effect on rash in patients; assay type: in vivo; conditions: 10 patients, 1% applied on rash area, after 10 minutes
# Procedure: Patient selection: 18-25 years old of either gender with rash at both body sides. Each composition was tested on 10 patients. Test was carried out with single-blind and self control. 1% composition or control was applied on rash area at left side of the body, and physiological saline was applied on rash area at the right side. After 10 minutes, the effects were evaluated.
# Effect evaluation: Obviously effective if both rash and itching feeling disappear; effective if parts of rash and itching feeling disappear; invalid if both rash and itching feeling keep unchanged.
# mice [2] = assay: Mice gastrointestinal motility, carbon powder propulsion; assay type: in vivo; conditions: 3 days
# Excerpt: Materials and reagents: oxymatrine injection (Xinhua Inc., batch No.: 0306003), neostigmine methylsulfate injection (Tianfu Inc., batch No.: 0404131), atropine sulfate injection (Tianfu Inc., batch No.: 0409271), morphine sulfate controlled-release tablets (Mengdi Inc., batach No.: 04082312).
# Animals and feeding environment: healthy SPF grade Kunming mice, half male, weight 18-22 g, provided by Lvye Inc., certificate No.: SYXK(LU)20030020. Every 10 mice were placed in one cage. Mice feeding was provided by Shandong experimental animal center. Experimental mice fed in barrier system with filtered air, at the room temperature of 18-22° C. and humidity at 50-60%, with 12 hours light radiation per day.
# Methods: The mice were intragastric administrated with testing compositions or controls for consecutive 3 days. Before the last administration, the mice were stopped feeding and supplied with water for 16 hours. 30 minutes after the last administration, the mice were intragastric administrated with 0.2 ml 5% activated carbon suspension. 20 minutes later, the mice were sacrificed by cervical dislocation. The abdominal cavity was opened and bowel was collected from pylorus to ileocecal. The bowel was placed on a tray and straightened. The total length of small intestine was measured, as well as the advanced distance of carbon powder in the intestine from pylorus. The percentage of carbon powder propulsion was calculated by the following formula: percentage of carbon powder propulsion=advanced distance of carbon powder/total length of small intestine×100%
# mice [3] = assay: Acute toxicity in mice; assay type: in vivo; conditions: 10 mice, 72 hours
# Procedure: Methods: Healthy mice were selected, each group containing 10 mice. The mice were intragastric administrated with testing compositions or controls once; and observed for 72 hours. The deaths were recorded.
# [4] = test system: quails of fat arteriosclerosis model; assay: Anti-atherosclerosis effect, serum TC and TG in quails; assay type: in vivo; conditions: quail serum, four weeks
# Excerpt: as §1, §2, §3, §4
# Method to detect the content of serum lipid: at the end of the 4th week after administration, feeding was stopped for 12 hours. 2 ml blood was collected from jugular vein. The serum was separated. The contents of serum cholesterol (TC) and triglyceride (TG) were measured according to an enzymatic method.
# mice [5] = assay: Analgesic effect, acetic acid writhing test in mice; assay type: in vivo; conditions: intragastric 20 mg/kg for 3 days, 0.6% acetic acid ip, writhing within 15 minutes
# Procedure: Method: Healthy mice were selected, each group containing 10 mice. The mice were intragastric administrated with 20 mg/kg testing compositions or control compositions for consecutive 3 days. 30 minutes after the last administration, the mice were intra-peritoneally (ip) injected with 10 ml/kg of 0.6% acetic acid. The writhing numbers of the mice within 15 minutes were recorded. The analgesic percentage was calculated.
# Analgesic percentage(%)=(writhing numbers of blank control group−writhing numbers of testing group)/writhing numbers of blank control group×100%
# mice [6] = assay: Anti-inflammatory effect, xylene ear swelling in mice; assay type: in vivo; conditions: xylene on right ear, ear coated with 1% composition, 30 minutes later
# Procedure: Healthy mice were selected, each group containing 10 mice. After weighing and marking, the right ear of the mice was contacted with xylene cotton ball for 5 seconds, leaving the left ear as control. 10 minutes after proinflammatory treatment, the right ear was coated with testing compositions (1%), control ingredients (individual ferulic acid or oxymatrine) or blank control (physiological saline). 30 minutes later, the mice was sacrificed by cervical dislocation. The same volume of tissues was collected from left ear (control) and fight ear (treated with xylene) by hole puncher (diameter: 6 mm), and weighed. The ear swelling percentage was calculated. Ear swelling percentage (%)=(Weight of right ear−Weight of left ear)/Weight of left ear×100%
# [7] = test system: type I collagen content of hepatic stellate cells; assay: Type I collagen content of hepatic stellate cells (ELISA kit); assay type: cell-based, rats; conditions: 50 μmol/l, HSC supernatant; mean ± SD
# Procedure: as §5, §6
# [8] = molecular target: T1, blood acetylcholinesterase (Rattus norvegicus, UniProt P37136); assay: Anticholinesterase effect on rat blood acetylcholinesterase; assay type: biochemical, rats
# T1 construct: 0.05 ml each diluted composition was pipetted into 0.5 ml diluted rats blood; from tissue; host or cells: rat whole blood, anticoagulated, diluted 10 times with physiological saline
# T1 sequence (P37136 32-614): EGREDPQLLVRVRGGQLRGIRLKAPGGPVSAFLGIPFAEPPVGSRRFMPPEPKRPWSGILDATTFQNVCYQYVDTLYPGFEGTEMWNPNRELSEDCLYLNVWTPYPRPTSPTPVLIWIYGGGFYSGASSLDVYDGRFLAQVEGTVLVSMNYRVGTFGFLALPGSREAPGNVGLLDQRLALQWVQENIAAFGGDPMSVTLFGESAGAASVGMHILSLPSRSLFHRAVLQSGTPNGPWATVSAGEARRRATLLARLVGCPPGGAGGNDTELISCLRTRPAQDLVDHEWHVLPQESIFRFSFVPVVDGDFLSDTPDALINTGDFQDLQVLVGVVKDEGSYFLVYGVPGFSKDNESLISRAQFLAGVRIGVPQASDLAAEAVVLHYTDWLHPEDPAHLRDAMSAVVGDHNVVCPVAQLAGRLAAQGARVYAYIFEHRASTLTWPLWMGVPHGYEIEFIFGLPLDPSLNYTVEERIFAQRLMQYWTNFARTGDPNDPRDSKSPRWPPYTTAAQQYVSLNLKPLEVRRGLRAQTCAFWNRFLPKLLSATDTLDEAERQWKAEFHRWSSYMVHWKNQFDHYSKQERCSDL
# Procedure: Methods: 5 ml blood was collected from healthy rats, stored in tubes containing anticoagulants and diluted 10 times with physiological saline (ready for use). The testing compositions were diluted with physiological saline to 0, 5, 10, 20, 40, 80, 160, 320, 640 mg/l concentrations, respectively. 0.05 ml each diluted composition was pipetted into 0.5 ml diluted rats blood, mixed thoroughly and incubated at 37° C. for 1 hour. The activity of blood acetylcholinesterase was measured according to the acetylcholinesterase kit. The half inhibitory concentration (IC50) was calculated.
# [9] = test system: rheumatoid arthritis patients; conditions: 30 patients, 200 mg tablets daily, 5 days
# Procedure: Testing composition preparation: The gel containing ferulic acid and matrine (mole ratio 1:1) were prepared according to a pharmaceutical method.
# Methods: 30 pairs of rheumatoid arthritis patients; 30 patients participating in the control group with daily administration of 200 mg naproxen tablets; 30 patients participating in the testing group with daily application on the affected parts of the testing gel containing ferulic acid and matrine. Both groups were administered for consecutive 5 days.
# Effect observations: obviously effective if both swelling and aches disappear; effective if aches disappear with limited swelling; invalid if both swelling and aches exist.
smiles,measurement,setting,value
"COc1cc(/C=C\C(=O)O)ccc1O [Ferulic acid, 4-hydroxy-3-methoxy cinnamic acid]",Numbers of quails in aortic atherosclerosis degree 0,[1]; 40 mg/kg,1
same,Numbers of quails in aortic atherosclerosis degree 1,[1]; 40 mg/kg,4
same,Numbers of quails in aortic atherosclerosis degree 2,[1]; 40 mg/kg,6
same,Numbers of quails in aortic atherosclerosis degree 3,[1]; 40 mg/kg,3
same,Numbers of quails in aortic atherosclerosis degree 4,[1]; 40 mg/kg,0
same,Total atherosclerosis score,[1]; 40 mg/kg,25
same,Average absorbance,hepatic stellate cells,0.42 ± 0.24
same,Effective (number of patients),patients with rash,3
same,Invalid (number of patients),patients with rash,7
same,"Percentage of carbon powder propulsion (mean ± SD, %)",mice [2]; intragastric 20 mg/kg,54.33 ± 10.22%
same,Death cases,mice [3]; single intragastric 1000 mg/kg,0
same,TC,[4]; 40 mg/kg intragastric daily,16.88 ± 6.31 mmol/L
same,TG,[4]; 40 mg/kg intragastric daily,3.52 ± 0.73 mmol/L
same,Analgesic percentage,mice [5],18.30%
same,Ear swelling percentage,mice [6],164.6%
same,Type I collagen content,[7],64.36 ± 11.22 µg/L
CC[C@H](C)C(=O)O[C@H]1C[C@@H](C)C=C2C=C[C@H](C)[C@H](CC[C@@H]3C[C@@H](O)CC(=O)O3)[C@H]21 [Luofatading],Numbers of quails in aortic atherosclerosis degree 0,[1]; 10 mg/kg,0
same,Numbers of quails in aortic atherosclerosis degree 1,[1]; 10 mg/kg,6
same,Numbers of quails in aortic atherosclerosis degree 2,[1]; 10 mg/kg,8
same,Numbers of quails in aortic atherosclerosis degree 3,[1]; 10 mg/kg,2
same,Numbers of quails in aortic atherosclerosis degree 4,[1]; 10 mg/kg,0
same,Total atherosclerosis score,[1]; 10 mg/kg,28
same,TC,[4]; 10 mg/kg intragastric daily,10.19 ± 2.07 mmol/L
same,TG,[4]; 10 mg/kg intragastric daily,1.68 ± 0.36 mmol/L
"O=C1CCC[C@@H]2[C@H]3CCCN4CCC[C@@H](CN12)[C@@H]34 [Matrine, matrine]",Death cases,mice [3]; single intragastric 500 mg/kg,10
"CN(C)C(=O)Oc1cccc([N+](C)(C)C)c1 [Neostigmine, neostigmine]","Percentage of carbon powder propulsion (mean ± SD, %)",mice [2]; intragastric 4 mg/kg,68.55 ± 4.80 %
same,IC50,"[8]; diluted rat blood, 37° C., 1 hour, read-out: IC50 (converted)",1640 µM
"O=C1CCC[C@@H]2[C@H]3CCC[N+]4([O-])CCC[C@@H](CN12)[C@@H]34 (stereo partly drawn) [Oxymatrine, oxymatrine]",Average absorbance,hepatic stellate cells,0.39 ± 0.17
same,Effective (number of patients),patients with rash,10
same,"Percentage of carbon powder propulsion (mean ± SD, %)",mice [2]; intragastric 10 mg/kg,58.85 ± 13.22%
same,"Percentage of carbon powder propulsion (mean ± SD, %)",mice [2]; intragastric 20 mg/kg,67.49 ± 11.68 %
same,IC50,[8],2780 µM
same,Analgesic percentage,mice [5],29.98%
same,Ear swelling percentage,mice [6],133.4%
same,Type I collagen content,[7],63.42 ± 9.76 µg/L
"O=C1C=CC[C@@H]2[C@H]3CCCN4CCC[C@@H](CN12)[C@@H]34 [Sophocarpine, sophocarpine]",Death cases,mice [3]; single intragastric 500 mg/kg,10
COc1ccc2cc([C@H](C)C(=O)O)ccc2c1 [naproxen],Effective cases,[9],11 cases
same,Obviously effective cases,[9],12 cases
same,Total effective percentage,[9],76.7%
